Values of other authors, collected in patent US6770729B2, “Polymer compositions containing bioactive agents and methods for their use” (priority 2002, dated 2004).

Biological target: avidin (Gallus gallus, UniProt P02701)
Sequence (P02701 25-152): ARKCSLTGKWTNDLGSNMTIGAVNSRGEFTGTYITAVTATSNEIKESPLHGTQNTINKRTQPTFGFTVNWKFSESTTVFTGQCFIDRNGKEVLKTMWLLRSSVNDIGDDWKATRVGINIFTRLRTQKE

SMILES: O=C(O)CCCC[C@@H]1SC[C@@H]2NC(=O)N[C@@H]21 [biotin]
- binding constant (avidin tetramer binds 4 biotin molecules in solution, noncovalent interaction): about 10^15 M^−1
- half-life in vivo (avidin-biotin interaction, dissociation of the complex): about 89 days
